Reference: US7745645B2, “Sulfonamide derivatives of xanthene compounds” (Pierce Biotechnology, Inc., priority 2007, dated 2010)

Test system: A549 cells
Experiment: High Content Screening measurement of p53 induction
Type: cell-based
Details: 5 μM camptothecin, 18-20 hours
Description: Any of the above described compounds are conjugated to antibodies and used for HCS measurement of p53 induction. A549 cells are seeded at 5,000 cells/well on 96 well microplates one day before treating them with different concentrations of camptothecin. In the presence of the drug, cells are incubated for 18-20 hours at 37° C., 5% CO2 in a humidified incubator. Cells are then fixed with 4% paraformaldehyde, permeabilized with 0.1% Triton X-100, and then labeled with rabbit p53 primary antibody and goat-anti-rabbit-conjugate of one of the above-described compounds. Cell nuclei are labeled with Hoechst 33342. The samples are imaged and quantitatively analyzed on an ArrayScan® HCS Reader (Cellomics, Inc. Pittsburgh Pa.). […] Camptothecin treated cells show bright p53 labeling in the nuclei.

Structure (SMILES): CC[C@@]1(O)C(=O)OCc2c1cc1n(c2=O)Cc2cc3ccccc3nc2-1 [camptothecin]
- p53 induction (fluorescence images): p53 induction in the nucleus
